Key:
[1] = test system: HIV-1 CCR5 clinical isolate; assay: ITI-367 combination assay, HIV-1 infectivity in tonsil cells, p24 ELISA; assay type: cell-based; settings: combined with NRTi (AZT, d4T), NNRTi (efavirenz), Pi (saquinavir, nelfinavir), FIG. 5-9
Experimental: The inhibitory potential of ITI-367 was tested using HIV-1 infectivity assays in combination with different FDA-approved drugs. […] Tonsil cells, isolated 24 hours post-surgical removal of tonsil tissue then frozen, were used as the target cells. Aliquots of the cells were thawed on the day of testing. There was no exogenous stimulation of the tonsil cells. The virus was a CCR5 clinical isolate at an approximate MOI of 1:40,000. Cells were incubated in the presence of drug for 17 hours prior to a 3.5 hour infection, at which time the virus inoculum was removed through three complete media exchanges. The cells were in the presence of drug before, during, and after all media removals. […]
Cells were cultured at 37° C. and 5% CO2 Samples (150 μl) were harvested on days 3, 5, 7, and 10 post-infection for HIV-1 p24 content analysis by ELISA. […] Uninfected, untreated cells were counted at each sampling to monitor tonsil cell growth kinetics.

ADA strain of HIV-1 = assay: inhibition of HIV-1 infection in monocyte-derived macrophages; assay type: cell-based; settings: 10, 1, 0.1, 0.01 μM; over a two week period; FIG. 2
Experimental: Macrophages were prepared as described above. After a week of culture in M-CSF, cells were washed several times in RPMI and pre-incubated in complete (NHS, pen/strep, L-glutamine) medium with compound ITI-367 in appropriate concentration overnight (10, 1, 0.1, and 0.01 μM). [ITI-367 having been dissolved in DMSO at 10 mM concentration which was used as a stock solution (stored at −70° C.). From the stock solutions a 50 μM solution of compound in RPMI was prepared and stored at 4° C.]. After overnight incubation with compound, cells were infected with 500,000 cpm (RT activity) of the ADA strain of HIV-1 in 500 μl of RPMI with or without the compound. Two hours after infection, cells were washed with RPMI and incubated in fresh complete medium with the appropriate concentration of compound. Every 3-4 days, half of the medium was collected and used to quantify the level of virus production. Cultures were supplemented with additional medium. Infected macrophages were maintained for 2-3 weeks.

[2] = biological target: T1, association of the viral matrix protein (p 17) with karyopherin α (Human immunodeficiency virus type 1 group M subtype B, UniProt P04591); assay: cell free assay of PIC binding to karyopherin α (HIV DNA in the Kα fraction); settings: cytoplasmic extracts of HIV-1 infected human monocyte-derived macrophages; FIG. 1
T1 construct: The PIC is comprised of a number of viral proteins including MA (p17); endogenous in cells; host or cells: cytoplasmic extracts of human monocyte-derived macrophages infected with HIV-1 (virus-made protein in the PIC)
Source text: The inhibition of a molecular target by ITI-367 is illustrated in FIG. 1. The molecular target for nuclear entry of HIV-1 is the association of the viral matrix protein (p 17) carrying the nuclear localization sequences, with the intracellular protein karyopherin α. To validate the activity of ITI-367, a cell free assay was used whereby human monocyte-derived macrophages collected from fresh blood samples were infected with HIV-1. At the predetermined time cells were lysed and the cytoplasmic extracts collected. The extracts contain HIV-1 pre-integration complexes (PIC) that represent the structure within which the HIV-1 cDNA is imported into the nucleus. The PIC is comprised of a number of viral proteins including MA (p17). […] Therefore, this is a cell free assay. The extent of binding was measured by evaluating the levels of HIV DNA found in the Kα fraction in the presence or absence of test compound.

[3] = test system: HIV-1 CCR5 clinical isolate; assay: inhibition of HIV-1 infection of T lymphocytes (tonsil cells), p24 ELISA; assay type: cell-based
Experimental: T lymphocytes were isolated from tonsil tissue 24 hours post-surgical removal and then frozen. Aliquots of all were thawed on day of testing. There was no exogenous stimulation of the tonsil cells. The virus was a CCR5 clinical isolate at an approximate MOI of 1:40,000. Cells were incubated in the presence of ITI-367 for 19 hours prior to a 2.5 hour infection, at which time the virus inoculum was removed followed by two complete media exchanges. Cell culture media was Iscove's Media with 2 mM L-Glutamine, 100 U/ml Penicillin, 100 ug/ml Streptomycin, and 8% heat-inactivated human serum AB. The drug concentrations used were 20 uM, 10 uM, 1 uM and 0.1 uM, prepared from a 50 mM DMSO stock. A no drug infection control (media only) was also evaluated in parallel. Replicates of four or six cultures were used to assess virus production from ITI-367 treated or control samples, respectively. Virus production was evaluated on days 3, 6, 10, 13, & 17 post-infection, by specific ELISA for HIV-1 core antigen (p24). Also, in FIG. 4, virus production was evaluated as a function of drug concentrations at 0, 0.1, 0.5, 1, 5 and 10 μM.

## COc1ccccc1-c1noc(=O)n1-c1cccc(C(F)(F)F)c1 [ITI-367]
[1]
  combination effect on inhibition of HIV-1 replication: synergistic effect
ADA strain of HIV-1
  inhibition of HIV-1 infection in monocyte-derived macrophages: inhibition of HIV-1 infection
[2]
  inhibition of association of PIC (MA p17) with karyopherin α: inhibition
[3]; 20, 10, 1, 0.1 uM, p24 over a seventeen day period, FIG. 3
  inhibition of HIV-1 infection of T lymphocytes: inhibition of HIV-1 infection
[3]; virus production as a function of drug concentration 0-10 μM, FIG. 4
  inhibition of replication of HIV-1 in Primary Lymphocytes: inhibition

— patent publication US20060264475A1, “COMPOUNDS, COMPOSITIONS AND METHODS FOR INHIBITING OR TREATING HIV-1” (CYTOKINE PHARMASCIENCES, INC., priority 2004, published 2006)
